Assay results from patent US10881642B2, “Autophagy enhancer and use thereof” (Industry-Academic Cooperation Foundation, Yonsei University, priority 2016, dated 2021).
“Also recorded” adds a separate entry of the source.

Tested on: TFEB
Test: TFEB nuclear translocation in TFEB-GFP HeLa cells
Assay type: cell-based
Conditions: 4 hrs
Protocol: FIG. 3A is the graph showing the percentage of nuclear translocated TFEB for which TFEB-GFP HeLa cells were treated with MSL compound for 4 hrs and then nuclei of the cells were stained with DAPI. FIG. 3B is the results of the experiments in which HeLa cells were incubated in the presence of MSL compound or vehicle control for 24 hrs and then the acidic vesicular organelles formed were stained with acridine orange. FIG. 3C is the results of the experiments in which TFEB-GFP HeLa cells were treated with MSL compound or vehicle control for 4 hrs and then the cells were immunoblotted with the antibodies indicated. FIG. 3D and FIG. 3E is the result of measuring the calcineurin activity in the lysates of Hepa1c1c7 cells treated with the compounds indicated. Error bars, S.D. **, P<0.01;***, P<0.001.
FIG. 10 is the result of the experiments using compound of formula 2 (hereinafter referred to as MSL-7) of the present disclosure as an autophagic enhancer. FIG. 10A is the result of immuneblot using the antibodies indicated using Hela cells treated with MSL or MSL-7. FIG. 10B is the result of measuring the viability of Hela cells treated with vehicle control or various concentration of MSL-7 (50-100 μM) for 48 hrs. FIG. 10C is the result of DAPI stained nuclei of TFEB-GFP HeLa cells which were treated with vehicle control or MSL-7 for 4 hrs. The graph indicates the percentage of TFEB translocated into the nuclei. Error bars, S.D. *, P<0.05; **, P<0.01; ***, P<0.001.
Screening of autophagy enhancer. […] Luciferase assay. […] Firefly luciferase was determined after mixing 5 μl of lysate with 25 μl of Luciferase Assay Reagent II. Renilla luciferase was then determined after further addition of 20 ul of Stop&Glo Reagent. […] Cytotoxicity was determined by the measurement of LDH release in cell culture media using the LDH kit (Roche), according to the protocol from the manufacturer. […] Imaging and image quantification. […] Formation of acidic vesicular organelles was quantitated by staining the cells with acridine orange (Invitrogen, 5 ug/ml, 10 min). […]

| SMILES | TFEB nuclear translocation | percentage of nuclei showing TFEB positivity (compared to untreated cells) |
| --- | --- | --- |
| COc1oc(-c2ccccc2Cl)nc1S(=O)(=O)c1ccccc1 [MSL-7, 2-(2-chlorophenyl)-5-methoxy-4-(phenylsulfonyl) oxazole] | induced nuclear translocation of TFEB; also recorded: in a dose-dependent manner |  |
| CSc1oc(-c2ccccc2)nc1S(=O)(=O)c1ccc(F)cc1 [MSL] | translocated to the nuclei in the majority of MSL-treated HeLa cells | greatly increased |
